Test results reported in US20150125506A1, “RETINAL PIGMENT EPITHELIAL CELLS DIFFERENTIATED FROM EMBRYONIC STEM CELLS WITH NICOTINAMIDE AND ACTIVIN A” (HADASIT MEDICAL RESEARCH SERVICES AND DEVELOPMENT LTD., priority 2007, published 2015).

Experiments:
Type in all cases: cell-based, human
[1] = system: hESCs; experiment: Differentiation of hESC free-floating clusters into pigmented (RPE) cells, counted as pigmented clusters and cells; details: for percentage of clusters that included pigmented cells / percentage of pigmented cells from the total number of cells: NA with activin A vs NA without activin A; for appearance of clusters harboring pigmented cells: factor added in presence of NA
Description: Human ESC (HES1 cell line) and hESCs engineered by lentiviral vector to constitutively express eGFP [Gropp M, Itsykson P, Singer O, Ben-Hur T, Reinhartz E, Galun E, and Reubinoff B E. Stable genetic modification of human embryonic stem cells by lentiviral vectors. Molecular Therapy 7:281-7 (2003)] were cultured on human foreskin fibroblasts feeder layers in KO medium (KOM) consisting of 86% KO-DMEM (Gibco, Invitrogen, Gaithersburg, Md.), 14% KOSR (Gibco), 1 mM glutamine, 1% nonessential amino acids, 50 units/ml penicillin (Gibco), 50 μg/ml streptomycin, (Gibco) and 4 ng/ml bFGF (R&D Systems, Inc., Minneapolis, Minn.). hES cells were weekly passaged with type IV collagenase (1 mg/ml; Gibco) and plated onto a fresh feeder layer. A week before induction of differentiation, the cells were passaged by dissociation into nearly a single-cell suspension with Ca/Mg^++-free PBS supplemented with 0.05% EDTA (Biological Industries, Beit Haemek, Israel) and were re-plated on the feeders.
(§1) Six-eight days after plating the hES cells that were dissociated into single cells as above; they were removed from the feeders by treatment with type IV collagenase. The clumps were cultured for various periods up to 12 weeks in suspension within bacteriological dishes precoated with 0.1% low melting temperature agarose in KO medium (KOM) consisting of 86% KO-DMEM, 14% KOSR, 1 mM glutamine, 1% nonessential amino acids, 50 units/ml penicillin, and 50 μg/ml streptomycin, in the presence or absence of 10 mM nicotinamide (NA) (Sigma, St. Louis, Mo., USA). In some experiments the medium used was Neurobasal™ medium (Gibco) supplemented with N2 supplement (1:100) (Gibco) (NN medium), which was substituted after 1 week with DMEM/F12 (Gibco) supplemented with B27 (1:50) (Gibco).
(§2) Human ESCs were allowed to differentiate as free-floating clusters in KOM as above for up to six weeks in the presence of nicotinamide (NA) 10 mM. After the first week or 2 weeks of differentiation, cultures were supplemented with activin A 20-180 ng/ml (PeproTech Inc, Rocky Hill, N.J.), with TGFβ3 (1 ng/ml; R&D Systems Inc, Minneapolis, Minn.) with TGFβ1 (1 ng/ml-20 ng/ml; R&D Systems Inc) or with SB431542 (5 μM-50 μM, Sigma). Control cultures were supplemented with NA alone.
(§3) Human ESCs in suspension in KOM were also supplemented after one week with the bone morphogenetic protein (BMP) antagonist noggin (700 ng/ml R&D Systems Inc, Minneapolis, Minn.) in the presence and absence of NA, or during the 3rd and 4th weeks with TGFβ (20 ng/ml PeproTech Inc) in the presence of NA and allowed to differentiate up to an age of 6 weeks as free-floating clusters in suspension.

[2] = system: hESC clusters; experiment: RT-PCR and Real-time PCR of marker transcripts in differentiating hESC clusters; details: for enhancement of MiTF-A expression by NA supplementation / increase of RPE65 expression with vs without NA: 12 weeks
Description: as §1, §2, §3
Total RNA was extracted from hESCs grown under serum-free conditions (1 week after passage), and at sequential time points up to 8 weeks during culturing of hESC-derived clusters in the presence or absence of 10 mM nicotinamide and with or without supplementation with TGFβ-superfamily growth factors or antagonists. The RNA was isolated using TRIzol reagent (Invitrogen, http://www.invitrogen.com) or TRI-Reagent (Sigma). cDNA synthesis was carried out using Moloney murine leukemia virus reverse transcriptase (M-MLV RT) and random primers, according to the manufacturer's instructions (Promega Corporation, Madison, Wis., http://www. promega.com). Polymerase chain reaction (PCR) was carried out using standard protocols with Taq DNA Polymerase (Gibco-BRL). Amplification conditions were as follows: denaturation at 94° C. for 15 seconds, annealing at 55° C. for 30 seconds, and extension at 72° C. for 45 seconds. The number of cycles varied between 18 and 40, depending on particular mRNA abundance. Primer human sequences for identifying human gene transcripts (forward and reverse 5′-3′) and the length of the amplified products were as follows (SEQ ID NOs. 1-12):
For Real-time PCR the levels of transcripts were monitored using TaqMan primers and probes that were derived from the commercially available TaqMan® Assays-on-Demand Gene Expression Products (Applied Biosystems, Foster City, Calif.): Oct4, ID Hs01895061; Musashi, ID Hs01045894; Pax6, ID Hs00240871; Six3, ID Hs00193667; Rx1, ID Hs00429459; Chx10, ID Hs01584048; MiTF-A, ID Hs01115553; MiTF-total, ID Hs01115557; Bestrophin, ID Hs00188249; RPE65, ID Hs00165642; Sox10, ID Hs00366918; Crx, ID Hs00230899. Quantitative PCR analysis was performed using an ABI Prism 7000HT and ABI Prism 7900HT Sequence Detection Systems and TaqMan® Universal PCR Master Mix (Applied Biosystems) according to the manufacturer's protocol. Housekeeping gene β-glucuronidase (GusB, assay ID Hs99999908) was selected as an internal reference for normalization in the Real-Time RT-PCR quantification analysis and the relative expression level of each gene is shown as a relative value when the expression level of day 0 (or untreated cells) was set at 1. Amplification reactions were carried out in duplicates or triplicates according to manufacturer's protocol (Applied Biosystems).

[3] = system: hESC clusters; experiment: Indirect immunofluorescent staining of differentiated cells within clusters
Description: To characterize the immunophenotype of cells within the aggregates, the clusters cultivated for 2, 4, 6 or 8 weeks were gently dissociated either with 0.04% trypsin/0.04% EDTA or with Papain Dissociation System (Worthington Biochemical, Lakewood, N.J.), and the resulting small clumps and single cells were plated in KO medium supplemented with NA on poly-D-lysine (30-70 kDa, 10-20 μg/ml) alone or supplemented with either laminin (4 μg/ml) or fibronectin (10-20 μg/ml; all from Sigma, St. Louis, http://www.sigmaaldrich.com). The cells were fixed with 4% paraformaldehyde after 2 hours and examined for the expression of nestin (1:200), polysialic acid NCAM (PSA-NCAM) (1:100), Musashi (1:200; all from Chemicon, Temecula, from CA), Pax6 (DSHB, 1:100 or Chemicon, 1:250), Otx2 (Chemicon, 1:200), MiTF (Lab Vision Corporation, Fremont, Calif.; mouse IgG1, 1:50).

[4] = system: hESC-derived clusters; experiment: Flow cytometry of PSA-NCAM and TRA-1-60 positive cells in hESC-derived clusters
Description: Flow cytometric analysis was performed to determine the number of PSA-NCAM and TRA-1-60 positive cells at different time points within the hESC-derived clusters differentiating with or without nicotinamide supplementation. The clusters were dissociated with 0.04% Trypsin/0.04% EDTA. The single cells were then stained with anti-PSA-NCAM or anti-Tra-1-60 antibodies (both from Chemicon; 1:100), detected with goat anti-mouse immunoglobulins conjugated to FITC (Dako; 1:100), and counterstained with the cell viability dye Propidium iodide (0.005 mg/ml; Sigma) Control cells were incubated only with a secondary antibody. The cell-associated immunoreactivity was analyzed with FACScalibur (Becton Dickinson Immunocytometry Systems), using CellQuest software.

[5] = 8 weeks of differentiation in presence of NA
[6] = 2 weeks old clusters, RT-PCR, with vs without NA
[7] = 6 weeks of differentiation, KOM, with vs without NA, Real-time RT-PCR
[8] = at 4 weeks, NA-treated clusters
[9] = Q-PCR time course, 2 weeks activin A treatment with NA vs NA alone
[10] = TGFβ3 added in presence of NA, 6 weeks

## NC(=O)c1cccnc1 [NA, nicotinamide]
[1]; 4 weeks
  percentage of clusters that included pigmented cells: 17.7±3.2%
  percentage of pigmented cells from the total number of cells: 2.4±1.2%
[1]; [5]
  percentage of cells that were pigmented within clusters: 5.7±1.0%
[1]; after 8 weeks of differentiation, KO medium with NA 10 mM
  percentage of clusters that had pigmented areas: 72.9±2.5%
[2]; [6]
  expression of activin receptor ACTRIB: high
  expression of activin receptor ACTRIIB: high
[2]; [7]
  increase of MiTF-A expression in presence of NA: nearly two-fold
  increase of RPE65 expression in presence of NA: ~30 fold
[2]; 8-week time course, NA-treated vs spontaneously differentiating clusters
  augmentation of RPE65 expression: > 100 folds
[2]; KOM
  enhancement of MiTF-A expression by NA supplementation: approximately 3 fold
  increase of RPE65 expression with vs without NA: approximately doubled
[2]; NA treatment vs no NA
  expression of Chx10: increased
  expression of Crx (photoreceptor progenitor marker): increased
  expression of Rx1 transcripts: increased
  expression of Six3 transcripts: increased
[2]; NA-treated cultures vs spontaneously differentiating hESC clusters
  expression of Bestrophin transcripts: higher
[2]; NN/DMEM medium
  enhancement of MiTF-A expression by NA supplementation: approximately 2.5 fold
  increase of RPE65 expression with vs without NA: ~6 fold
[2]; after 2-6 weeks of differentiation, with vs without NA
  expression of Pax6 transcripts: significantly increased
[2]; after 2 weeks of differentiation, with vs without NA
  expression of Otx2 transcripts: significantly increased
[2]; after 4-6 weeks of differentiation, with vs without NA
  expression of Musashi transcripts: significantly increased
[2]; time course in presence of NA
  expression of transcripts of the early RPE marker MiTF A: induced after 4 weeks
[2]; time course, with vs without NA
  expression of Oct4 (marker of undifferentiated hESCs): declined more rapidly
[2]; with vs without NA, M51 melanoma cell line as control
  expression of Sox10 (melanocyte developmental marker): not dependent on NA supplementation
[3]; [5]
  percentage of cells expressing the early RPE marker MiTF: 5.4±1.1%
[3]; [8]
  percentage of cells expressing Musashi (immunofluorescence): 71.4%
  percentage of cells expressing PSA-NCAM (immunofluorescence): 74.2±4.1%
  percentage of cells expressing nestin (immunofluorescence): 55.9±10.1%
[4]; FACS time course, NA treated vs untreated
  expression of TRA-1-60 (surface marker of undifferentiated cells): declined more rapidly
[4]; after 4 weeks of differentiation with NA
  percentage of cells expressing PSA-NCAM (FACS): 81.4±6.3%

## NC(=O)c1ccc(-c2nc(-c3ccc4c(c3)OCO4)c(-c3ccccn3)[nH]2)cc1 [SB431542]
[1]; 4 weeks, added together with activin A and NA
  appearance of pigmented clusters: significantly decreased

## TGFβ1: transforming growth factor-β protein subtype, member of the TGFβ superfamily
[1]
  appearance of clusters harboring pigmented cells: significantly enhanced

## activin A
[1]; 4 weeks
  percentage of clusters that included pigmented cells: 50.7±6.5%
  percentage of pigmented cells from the total number of cells: 9.9±1.4%
[1]; activin A studied at various concentrations, in presence of NA
  concentration with optimal augmenting effect on percentage of pigmented cells and expression of Bestrophin and RPE65: 140 ng/mL
[1]; developed in presence of activin A and NA vs NA alone
  pigmentation of clusters of pigmented cells: darker
[1]; in presence of NA
  increase of the percentage of pigmented cells in presence of activin A: 5-6 folds
[2]; 6 weeks, in presence of NA, vs NA alone
  expression of MiTF-A with activin A supplementation: not affected
[2]; 6 weeks, in presence of NA, vs NA alone (FIG. 4D)
  increase of RPE65 expression by activin A treatment: over five-fold
[2]; 6 weeks, in presence of NA, vs NA alone (FIG. 4E)
  increase of Bestrophin expression by activin A treatment: over four-fold
[2]; [9]
  expression of RPE marker Bestrophin: significantly increased
  expression of retinal progenitor marker Chx10: significantly increased
  expression of retinal progenitor marker Rx1: significantly increased
[2]; at 4 weeks of differentiation, activin A with NA vs NA alone
  expression level of total MiTF-isoforms: increased
[2]; in presence of NA
  increase of bestrophin expression in presence of activin A: about 10 folds

## bFGF: basic FGF
[1]
  appearance of clusters harboring pigmented cells: abolished

B1: noggin: bone morphogenetic protein (BMP) antagonist (protein, UniProt Q13253 28-232, looked up)
Noggin: QHYLHIRPAPSDNLPLVDLIEHPDPIFDPKEKDLNETLLRSLLGGHYDPGFMATSPPEDRPGGGGGAAGGAEDLAELDQLLRQRPSGAMPSEIKGLEFSEGLAQGKKQRLSKKLRRKLQMWLWSQTFCPVLYAWNDLGSRFWPRYVKVGSCFSKRSCSVPEGMVCKPSKSVHLTVLRWRCQRRGGQRCGWIPIQYPIISECKCSC
[1]; noggin, absence of NA, 6 weeks
  differentiation of hESC clusters into pigmented RPE cells: blocked
[1]; noggin, medium also supplemented with NA, 6 weeks
  differentiation into pigmented cells: blocked
[2]; noggin, both presence and absence of NA, Real-Time RT-PCR
  expression of MiTF-A: significantly reduced

B2: TGFβ3: transforming growth factor-β protein subtype, member of the TGFβ superfamily (protein, UniProt P10600 301-412, looked up)
Transforming growth factor …: ALDTNYCFRNLEENCCVRPLYIDFRQDLGWKWVHEPKGYYANFCSGPCPYLRSADTTHSTVLGLYNTLNPEASASPCCVPQDLEPLTILYYVGRTPKVEQLSNMVVKSCKCS
modifications: Transforming growth factor beta-3
notes: transforming growth factor-β protein subtype, member of the TGFβ superfamily
[2]; [10]
  expression levels of RPE65: but not of RPE65
  expression levels of transcripts of MiTF-A: significantly augmented
